The target in the assay is T1, human RXFP1 (Homo sapiens, UniProt Q9HBX9).
T1 construct: expressed in transfected cells
T1 sequence (Q9HBX9 1-757): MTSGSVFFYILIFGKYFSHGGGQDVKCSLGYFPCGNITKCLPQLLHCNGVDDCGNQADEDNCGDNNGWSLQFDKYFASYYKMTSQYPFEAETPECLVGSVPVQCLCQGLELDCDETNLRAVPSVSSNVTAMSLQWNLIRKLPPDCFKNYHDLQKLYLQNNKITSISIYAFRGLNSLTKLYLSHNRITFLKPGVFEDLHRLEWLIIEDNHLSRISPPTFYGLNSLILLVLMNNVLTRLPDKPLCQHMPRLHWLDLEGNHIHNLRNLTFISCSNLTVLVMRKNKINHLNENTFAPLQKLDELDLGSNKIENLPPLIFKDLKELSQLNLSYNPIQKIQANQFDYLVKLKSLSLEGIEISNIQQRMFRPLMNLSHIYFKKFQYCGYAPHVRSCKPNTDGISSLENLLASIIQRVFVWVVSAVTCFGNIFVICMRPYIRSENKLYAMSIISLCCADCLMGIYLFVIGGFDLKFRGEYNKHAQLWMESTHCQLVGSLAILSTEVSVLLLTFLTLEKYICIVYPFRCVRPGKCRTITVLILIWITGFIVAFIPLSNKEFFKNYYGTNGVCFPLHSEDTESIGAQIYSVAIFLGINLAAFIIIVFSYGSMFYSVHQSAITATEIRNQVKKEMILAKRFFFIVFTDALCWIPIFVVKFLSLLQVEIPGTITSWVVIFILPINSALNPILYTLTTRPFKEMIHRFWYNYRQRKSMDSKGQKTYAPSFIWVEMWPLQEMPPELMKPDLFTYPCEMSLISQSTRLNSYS
The assay is described as follows: hRXFP1 HEK293 cAMP assay (HTRF). In kind it is cell-based. Particulars: HEK293 cells stably expressing human RXFP1, 30 min at room temperature. As for the experimental part:
RXFP1 Cyclic Adenosine Monophosphate (cAMP) Assays. […] Cells were dissociated and suspended in assay buffer. The assay buffer was HBSS buffer (with calcium and magnesium) containing 20 mM HEPES, 0.05% BSA, and 0.5 mM IBMX. Cells (3000 cells per well, except 1500 cell per well for HEK293 cells stably expressing human RXFP1) were added to 384-well Proxiplates (Perkin-Elmer). Cells were immediately treated with test compounds in DMSO (2% final) at final concentrations in the range of 0.010 nM to 50 μM. Cells were incubated for 30 min at room temperature. The level of intracellular cAMP was determined using the HTRF HiRange cAMP assay reagent kit (Cisbio) according to manufacturer's instructions. Solutions of cryptate conjugated anti-cAMP and d2 fluorophore-labelled cAMP were made in a supplied lysis buffer separately. Upon completion of the reaction, the cells were lysed with equal volume of the d2-cAMP solution and anti-cAMP solution. […] The potency and activity of a compound to […] cAMP production was then determined by fitting to a 4-parametric logistic equation from a plot of cAMP level versus compound concentrations.
`COc1ccc(/C=C/C(=O)N[C@H]2C[C@@H](O)C2)cc1C(=O)N[C@@H]1C2CCC(/C2=C/C(F)(F)F)[C@@H]1C(=O)Nc1ccc(F)c(C(F)(F)F)c1` (stereo partly drawn) [Example 134, (2S,3R,7Z)-N-[4-fluoro-3-(trifluoromethyl)phe-nyl]-3-{2-methoxy-5-[(1E)-2-{[(1s,3s)-3-hydroxycyclobutyl]car-bamoyl}eth-1-en-1-yl]benzamido}-7-(2,2,2-trifluoroethylidene)bi-cyclo[2.2.1]heptane-2-carboxamide] yielded a concentration for a half-maximal effect (EC50) of 561 nM.
For `COc1ccc(CCCO)cc1C(=O)NC1C2CCC(/C2=C/C2CCCC2)[C@@H]1C(=O)Nc1ccc(F)c(C(F)(F)F)c1` (stereo partly drawn) [Example 167, (7Z)-7-(cyclopentylmethyli-dene)-N-[4-fluoro-3-(trifluoromethyl)phe-nyl]-3-[5-(3-hydroxypropyl)-2-methoxybenzamido] bicyclo[2.2.1]heptane-2-carboxamide] the value was 11 nM; for `COc1ccc(S(=O)(=O)N(CCO)CCO)cc1C(=O)N[C@H]1[C@@H](C(=O)Nc2ccc(F)c(C(F)(F)F)c2)[C@H]2CC[C@@H]1/C2=C\C(F)(F)F` [Example 217, (1R,2S,3R,4R,7Z)-3-{5-[bis(2-hydroxyethyl)sulfamoyl]-2-methoxybenzamido}-N-[4-fluoro-3-(trifluoromethyl)phenyl]-7-(2,2,2-trifluoroethylidene) bicyclo[2.2.1] heptane-2-carboxamide], 221 nM.
With `COc1ccc(CCC(=O)N2CCC(O)CC2)cc1C(=O)N[C@H]1[C@@H](C(=O)Nc2ccc(F)c(C(F)(F)F)c2)[C@H]2CC[C@@H]1/C2=C\C(F)(F)F` [Example 320] the figure was 81.2 nM; with `COc1ccc(CN2C(=O)NC3(CCCC3)C2=O)cc1C(=O)N[C@@H]1C2CCC(/C2=C/C2CC2)[C@@H]1C(=O)Nc1ccc(F)c(C(F)(F)F)c1` (stereo partly drawn) [Example 21, (2S,3R,7Z)-7-(cyclopropylmethyli-dene)-3-[5-({2,4-dioxo-1,3-diazaspiro[4.4]nonan-3-yl}methyl)-2-methoxybenzamido]-N-[4-fluoro-3-(trifluoromethyl)phe-nyl]bicyclo[2.2.1]hept-ane-2-carboxamide], 330 nM; with `COc1ccc(C#C[C@@H](C)O)cc1C(=O)N[C@@H]1C2CCC(/C2=C/C(F)(F)F)[C@@H]1C(=O)Nc1ccc(F)c(C(F)(F)F)c1` (stereo partly drawn) [Example 72, (2S,3R,7Z)-N-[4-fluoro-3-(trifluoromethyl)phe-nyl]-3-{5-[(3R)-3-hydroxybut-1-yn-1-yl]-2-methoxybenzamido}-7-(2,2,2-trifluoroethylidene)bi-cyclo[2.2.1]heptane-2-carboxamide], 134 nM.
For `COc1ccc(S(=O)(=O)N2CCS(=O)(=O)CC2)cc1C(=O)N[C@H]1[C@@H](C(=O)Nc2ccc(F)c(C(F)(F)F)c2)[C@H]2CC[C@@H]1/C2=C\C1CC1` [Example 222, (1R,2S,3R,4R,7Z)-7-(cyclopropylmethylidene)-3-{5-[(1,1-dioxo-1λ^6-thiomorpholin-4-yl)sulfonyl]-2-methoxybenzamido}-N-[4-fluoro-3-(trifluoromethyl)phenyl]bicyclo[2.2.1] heptane-2-carboxamide] the value was 84.9 nM; for `COc1ccc(C(=O)N2CC[C@H](O)C2)cc1C(=O)N[C@H]1[C@@H](C(=O)Nc2ccc(F)c(C(F)(F)F)c2)[C@H]2CC[C@@H]1/C2=C\C1CC1` [Example 254, (1R,2S,3R, 4R,7Z)-7-(cyclopropyl-methylidene)-N-[4-fluoro-3-(trifluoromethyl)phenyl]-3-{5-[(3S)-3-hydroxypyrrolidine-1-carbonyl]-2-methoxybenzamido} bicyclo[2.2.1] heptane-2-carboxamide], 54 nM.
For the compound “(1R,4R,7Z)-N-14- fluoro-3- (trifluoromethyl) phenyl]-3-[5-(3- hydroxy-3- methylbutyl)-2- methoxybenzamido 1-7-[(oxan-3- yl)methylidene] bicyclo[2.2.1] heptane- 2-carboxamide [Example 266]”, a half-maximal response (EC50) required 186 nM.
With `COc1ccc(C(O)C(F)(F)F)cc1C(=O)NC1C2CCC(/C2=C/C(F)(F)F)[C@@H]1C(=O)Nc1ccc(F)c(C(F)(F)F)c1` (single isomer, unassigned) [Example 5] the figure was 1010 nM; with “(1R,4R,7Z)-7- (cyclopentyl- methylidene)- N-[4-fluoro- 3-(trifluoromethyl) phenyl]-3-[5-(3- hydroxy-3- methylbutyl)-2- methoxybenzamido] bicyclo[2.2.1]heptane- 2-carboxamide [Example 260]”, 324 nM.
For `COc1ccc(/C=C/CCO)cc1C(=O)N[C@@H]1C2CCC(C2=C(C)C)[C@@H]1C(=O)Nc1ccc(F)c(C(F)(F)F)c1` (stereo partly drawn) [Example 32] the value was 740 nM; for `COc1ccc(C)cc1C(=O)N[C@@H]1C2CCC(C2=C(C)C)[C@@H]1C(=O)Nc1ccc(F)c(C(F)(F)F)c1` (stereo partly drawn) [Example 360, (2S,3R)-N-[4-fluoro-3-(trifluoromethyl)phenyl]-3-(2-methoxy-5-methylbenzamido)-7-(propan-2-ylidene)bicyclo[2.2.1] heptane-2-carboxamide], 2000 nM.
With `COc1ccc(C2CC3(CC(NC(=O)OC(C)(C)C)C3)C2)cc1C(=O)NC1C2CCC(/C2=C/C(F)(F)F)[C@@H]1C(=O)Nc1ccc(F)c(C(F)(F)F)c1` (stereo partly drawn) [Example 153, tert-butyl N-[6-(3-{[(2R,3S,7Z)-3-{[4-fluoro-3-(trifluoromethyl)phe-nyl]carbamoyl}-7-(2,2,2-trifluoroethylidene)bi-cyclo[2.2.1]heptan-2-yl]carbamoyl}-4-methoxyphenyl)spiro [3.3]heptan-2-yl]carbamate] the figure was 1620 nM; with `COc1ccc(C(=O)N2CC3(COC3)C2)cc1C(=O)N[C@H]1[C@@H](C(=O)Nc2ccc(F)c(C(F)(F)F)c2)[C@H]2CC[C@@H]1/C2=C\C1CC1` [Example 248, (1R,2S,3R,4R,7Z)-7-(cyclopropylmethyl-idene)-N-[4-fluoro-3-(trifluoromethyl)phenyl]-3-(2-methoxy-5-{2-oxa-6-azaspiro[3.3]heptane-6-carbonyl}benzamido) bicyclo[2.2.1]heptane-2-carboxamide], 128 nM; with `COc1ccc(S(=O)(=O)N2CCC(CCO)CC2)cc1C(=O)N[C@H]1[C@@H](C(=O)Nc2ccc(F)c(C(F)(F)F)c2)[C@H]2CC[C@@H]1/C2=C\C(F)(F)F` [Example 219, (1R,2S,3R,4R,7Z)-N-[4-fluoro-3-(trifluoromethyl)phenyl]-3-(5-{[4-(2-hydroxyethyl)piperidin-1-yl]sulfonyl}-2-methoxybenzamido)-7-(2,2,2-trifluoroethylidene) bicyclo[2.2.1]heptane-2-carboxamide], 317 nM.
“4-(3-{[(2R,3S,7Z)- 3-{[4-fluoro-3- (trifluoromethyl)phe- nyl]carbamoyl}-7- (2,2,2- trifluoroethylidene)bi- cyclo[2.2.1]heptan- 2-yl]carbamoyl}-4- methoxyphenyl)cyclo- hexyl N- phenylcarbamate [Example 54]” came in with a half-maximal effective concentration (EC50) of 158 nM.
With `COc1ccc(C2CC2C(=O)O)cc1C(=O)N[C@@H]1C2CCC(/C2=C/C(F)(F)F)[C@@H]1C(=O)Nc1ccc(F)c(C(F)(F)F)c1` (single isomer, unassigned) [Example 63] the figure was 4420 nM.

The values above are taken from patent US20250268903A1, “RXFP1 AGONISTS” (BRISTOL-MYERS SQUIBB COMPANY, priority 2021, published 2025).
